Consider 2 compounds from ChEMBL document CHEMBL1201862, “PubChem BioAssay data set” (2004).

Active and inactive are the calls of the source.

Holding throughout (assay type): functional
Experiment [1] deals with T1, Sentrin-specific protease 8 (Homo sapiens, UniProt Q96LD8).
T1 sequence (Q96LD8 whole entry): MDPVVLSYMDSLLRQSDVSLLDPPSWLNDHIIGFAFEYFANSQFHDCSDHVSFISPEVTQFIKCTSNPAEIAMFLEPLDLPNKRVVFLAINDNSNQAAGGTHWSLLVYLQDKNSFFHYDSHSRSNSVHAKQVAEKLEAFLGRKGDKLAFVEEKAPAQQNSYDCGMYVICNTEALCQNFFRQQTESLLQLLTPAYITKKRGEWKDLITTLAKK

Experiment [2] concerns the target T2, Sentrin-specific protease 6 (Homo sapiens, UniProt Q9GZR1).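 Also: Luminescence-based dose-response confirmatory assay of SENP6 inhibition, following up an ultra-high-throughput screen.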
T2 sequence (Q9GZR1 whole entry): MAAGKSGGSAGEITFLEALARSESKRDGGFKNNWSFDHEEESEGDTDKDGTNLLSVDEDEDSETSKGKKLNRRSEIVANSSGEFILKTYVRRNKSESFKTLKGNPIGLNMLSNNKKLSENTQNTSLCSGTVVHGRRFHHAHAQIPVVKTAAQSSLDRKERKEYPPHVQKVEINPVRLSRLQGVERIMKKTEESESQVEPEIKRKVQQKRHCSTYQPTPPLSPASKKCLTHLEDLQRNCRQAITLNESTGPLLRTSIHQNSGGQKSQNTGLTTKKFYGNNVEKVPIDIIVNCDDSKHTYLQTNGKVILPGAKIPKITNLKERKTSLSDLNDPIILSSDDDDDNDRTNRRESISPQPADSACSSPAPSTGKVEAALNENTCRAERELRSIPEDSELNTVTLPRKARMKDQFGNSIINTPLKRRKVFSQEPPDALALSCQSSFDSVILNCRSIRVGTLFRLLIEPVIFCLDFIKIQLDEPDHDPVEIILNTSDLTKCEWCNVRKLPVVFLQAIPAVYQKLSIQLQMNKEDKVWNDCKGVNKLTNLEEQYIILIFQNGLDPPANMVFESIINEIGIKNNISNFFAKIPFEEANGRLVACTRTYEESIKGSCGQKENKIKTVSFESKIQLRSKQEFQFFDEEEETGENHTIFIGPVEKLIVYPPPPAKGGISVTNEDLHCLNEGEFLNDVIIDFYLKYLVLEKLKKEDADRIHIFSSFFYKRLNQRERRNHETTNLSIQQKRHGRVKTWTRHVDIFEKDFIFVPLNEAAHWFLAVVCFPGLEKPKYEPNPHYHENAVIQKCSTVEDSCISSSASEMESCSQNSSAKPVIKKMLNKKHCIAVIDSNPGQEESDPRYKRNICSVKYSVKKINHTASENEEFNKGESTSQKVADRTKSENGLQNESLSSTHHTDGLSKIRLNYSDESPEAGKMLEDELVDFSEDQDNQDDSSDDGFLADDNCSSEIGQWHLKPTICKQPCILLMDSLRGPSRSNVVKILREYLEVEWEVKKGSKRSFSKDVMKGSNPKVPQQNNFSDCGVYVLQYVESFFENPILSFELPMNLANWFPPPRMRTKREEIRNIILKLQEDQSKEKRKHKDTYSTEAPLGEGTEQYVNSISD

Experiment [3] addresses Tyrosine-protein kinase ABL1 (Homo sapiens, UniProt P00519).
For experiment [4], the target named is Hepatocyte growth factor receptor (Homo sapiens, UniProt P08581).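 Also: kinase panel profiling across the kinome, with MET as the panel member.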
Experiment [5] addresses High affinity nerve growth factor receptor (Homo sapiens, UniProt P04629).
Experiment [6] has as its target Vascular endothelial growth factor receptor 2 (Homo sapiens, UniProt P35968).
The target in experiment [7] is Fibroblast growth factor receptor 1 (Homo sapiens, UniProt P11362).
The target of experiment [8] is Cyclin-dependent kinase 9 (Homo sapiens, UniProt P50750).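 Also: value from the CDK9 entry of a kinome-spanning kinase panel.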
The target of experiment [9] is Death-associated protein kinase 3 (Homo sapiens, UniProt O43293).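 Also: measured as one member of a kinome-wide profiling panel.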
Experiment [10] concerns the target Tyrosine-protein kinase JAK3 (Homo sapiens, UniProt P52333).
In experiment [11] the target is Glycogen synthase kinase-3 beta (Homo sapiens, UniProt P49841).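 Also: value comes from a broad kinome profiling panel, with GSK3B as the panel member.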
Experiment [12] deals with Platelet-derived growth factor receptor alpha (Homo sapiens, UniProt P16234). Kind of experiment: Navigating the Kinome. Panel member name: PDGFRA.
Experiment [13] deals with Cyclin-dependent kinase 8 (Homo sapiens, UniProt P49336). Kind of experiment: Navigating the Kinome. Panel member name: CDK8.
Experiment [14] addresses Insulin-like growth factor 1 receptor (Homo sapiens, UniProt P08069). Description: Navigating the Kinome. Panel member name: IGF1R.
Experiment [15] deals with Dual specificity mitogen-activated protein kinase kinase 1 (Homo sapiens, UniProt Q02750). Description: Navigating the Kinome. Panel member name: MAP2K1.
For experiment [16], the target named is Dual specificity tyrosine-phosphorylation-regulated kinase 1A (Homo sapiens, UniProt Q13627).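 Also: measured against DYRK1A as one member of a broad kinome profiling panel.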
The target of another experiment is Activated CDC42 kinase 1 (Homo sapiens, UniProt Q07912). Description: Navigating the Kinome. Panel member name: ACK1.
Experiment [17] has as its target ALK tyrosine kinase receptor (Homo sapiens, UniProt Q9UM73).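 Also: ALK tested as one member of a kinase panel screen.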
For experiment [18], the target named is cAMP-dependent protein kinase catalytic subunit PRKX (Homo sapiens, UniProt P51817).
In experiment [19] the target is Protein kinase C theta type (Homo sapiens, UniProt Q04759). Description: Navigating the Kinome. Panel member name: PRKCQ.
The target of experiment [20] is Cyclin-dependent kinase 7 (Homo sapiens, UniProt P50613).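 Also: value comes from a kinome-wide kinase profiling panel in which CDK7 is one member.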
Experiment [21] has as its target Mitogen-activated protein kinase 14 (Homo sapiens, UniProt Q16539).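 Also: part of a kinome-wide panel, MAPK14 entry.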
Experiment [22] has as its target 5'-AMP-activated protein kinase catalytic subunit alpha-1 (Homo sapiens, UniProt Q13131).
The target in experiment [23] is Mitogen-activated protein kinase 8 (Homo sapiens, UniProt P45983).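 Also: value comes from one member of a kinome-wide kinase profiling panel.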

Chain of Cyclin-dependent kinase 7 (P50613 whole entry): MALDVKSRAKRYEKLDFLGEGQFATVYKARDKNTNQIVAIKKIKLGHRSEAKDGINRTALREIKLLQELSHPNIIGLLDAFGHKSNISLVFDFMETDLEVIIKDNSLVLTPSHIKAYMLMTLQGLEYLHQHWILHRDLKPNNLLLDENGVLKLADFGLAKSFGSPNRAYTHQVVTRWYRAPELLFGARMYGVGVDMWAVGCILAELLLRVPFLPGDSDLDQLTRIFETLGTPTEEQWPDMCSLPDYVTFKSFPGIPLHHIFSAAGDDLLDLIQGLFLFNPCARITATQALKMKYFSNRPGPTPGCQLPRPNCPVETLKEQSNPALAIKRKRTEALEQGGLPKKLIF
Chain of Cyclin-dependent kinase 9 (P50750 whole entry): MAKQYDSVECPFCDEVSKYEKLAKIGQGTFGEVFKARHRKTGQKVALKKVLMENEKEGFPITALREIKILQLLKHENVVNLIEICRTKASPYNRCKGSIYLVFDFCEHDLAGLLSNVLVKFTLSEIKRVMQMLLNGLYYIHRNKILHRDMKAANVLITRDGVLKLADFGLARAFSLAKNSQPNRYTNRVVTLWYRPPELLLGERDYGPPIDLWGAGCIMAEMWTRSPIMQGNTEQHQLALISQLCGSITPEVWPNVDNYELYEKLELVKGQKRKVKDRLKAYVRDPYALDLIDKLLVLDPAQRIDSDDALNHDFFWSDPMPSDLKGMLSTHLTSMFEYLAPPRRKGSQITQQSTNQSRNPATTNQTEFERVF
Chain of Dual specificity mitogen-activated protein kinase kinase 1 (Q02750 whole entry): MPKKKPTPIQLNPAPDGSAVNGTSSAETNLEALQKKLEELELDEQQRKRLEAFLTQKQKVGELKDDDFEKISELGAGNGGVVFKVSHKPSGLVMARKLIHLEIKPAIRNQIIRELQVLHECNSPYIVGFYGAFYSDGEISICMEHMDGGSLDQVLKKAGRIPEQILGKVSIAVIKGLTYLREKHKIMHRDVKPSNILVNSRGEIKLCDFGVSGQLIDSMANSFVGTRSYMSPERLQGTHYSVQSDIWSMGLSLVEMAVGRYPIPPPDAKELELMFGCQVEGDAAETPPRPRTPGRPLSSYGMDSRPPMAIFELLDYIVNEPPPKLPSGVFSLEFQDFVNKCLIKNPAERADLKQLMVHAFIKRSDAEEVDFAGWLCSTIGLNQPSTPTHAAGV
Chain of Mitogen-activated protein kinase 14 (Q16539 whole entry): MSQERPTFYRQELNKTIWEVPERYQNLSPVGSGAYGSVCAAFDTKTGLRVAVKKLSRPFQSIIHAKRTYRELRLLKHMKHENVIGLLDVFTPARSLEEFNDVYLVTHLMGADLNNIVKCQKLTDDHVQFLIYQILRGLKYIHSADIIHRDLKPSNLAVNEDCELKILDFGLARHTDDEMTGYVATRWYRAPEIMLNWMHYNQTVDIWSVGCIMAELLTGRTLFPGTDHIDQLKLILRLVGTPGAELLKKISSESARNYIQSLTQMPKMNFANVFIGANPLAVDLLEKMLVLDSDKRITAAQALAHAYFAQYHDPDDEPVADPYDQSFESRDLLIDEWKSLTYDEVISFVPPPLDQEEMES
Chain of Tyrosine-protein kinase ABL1 (P00519 whole entry): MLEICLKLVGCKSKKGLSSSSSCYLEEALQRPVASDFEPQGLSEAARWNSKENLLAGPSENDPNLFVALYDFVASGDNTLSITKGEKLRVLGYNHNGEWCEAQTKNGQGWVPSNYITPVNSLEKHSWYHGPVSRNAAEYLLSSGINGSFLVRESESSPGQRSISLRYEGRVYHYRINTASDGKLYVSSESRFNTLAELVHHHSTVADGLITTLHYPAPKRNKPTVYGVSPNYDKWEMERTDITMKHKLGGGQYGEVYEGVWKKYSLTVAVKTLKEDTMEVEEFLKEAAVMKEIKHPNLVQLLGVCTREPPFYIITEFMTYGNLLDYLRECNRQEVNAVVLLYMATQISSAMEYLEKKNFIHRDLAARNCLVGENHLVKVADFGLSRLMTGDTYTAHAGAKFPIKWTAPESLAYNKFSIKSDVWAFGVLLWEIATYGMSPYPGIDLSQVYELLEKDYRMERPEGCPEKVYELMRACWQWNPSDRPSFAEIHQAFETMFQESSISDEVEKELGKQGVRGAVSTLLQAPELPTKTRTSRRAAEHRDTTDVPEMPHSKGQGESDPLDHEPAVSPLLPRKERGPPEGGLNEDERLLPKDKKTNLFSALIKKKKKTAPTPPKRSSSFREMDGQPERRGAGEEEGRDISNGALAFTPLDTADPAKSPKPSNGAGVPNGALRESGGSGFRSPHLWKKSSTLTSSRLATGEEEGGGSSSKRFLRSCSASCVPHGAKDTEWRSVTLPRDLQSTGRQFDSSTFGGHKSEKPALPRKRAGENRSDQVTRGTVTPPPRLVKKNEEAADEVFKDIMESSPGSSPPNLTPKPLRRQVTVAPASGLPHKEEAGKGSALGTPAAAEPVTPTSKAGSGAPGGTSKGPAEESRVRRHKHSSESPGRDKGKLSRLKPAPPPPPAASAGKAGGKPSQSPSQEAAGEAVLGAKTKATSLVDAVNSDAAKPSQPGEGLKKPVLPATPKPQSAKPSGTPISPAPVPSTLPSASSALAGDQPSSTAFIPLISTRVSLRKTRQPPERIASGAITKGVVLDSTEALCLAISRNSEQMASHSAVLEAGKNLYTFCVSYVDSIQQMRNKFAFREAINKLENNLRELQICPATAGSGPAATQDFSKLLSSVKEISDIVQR
Chain of cAMP-dependent protein kinase catalytic subunit PRKX (P51817 whole entry): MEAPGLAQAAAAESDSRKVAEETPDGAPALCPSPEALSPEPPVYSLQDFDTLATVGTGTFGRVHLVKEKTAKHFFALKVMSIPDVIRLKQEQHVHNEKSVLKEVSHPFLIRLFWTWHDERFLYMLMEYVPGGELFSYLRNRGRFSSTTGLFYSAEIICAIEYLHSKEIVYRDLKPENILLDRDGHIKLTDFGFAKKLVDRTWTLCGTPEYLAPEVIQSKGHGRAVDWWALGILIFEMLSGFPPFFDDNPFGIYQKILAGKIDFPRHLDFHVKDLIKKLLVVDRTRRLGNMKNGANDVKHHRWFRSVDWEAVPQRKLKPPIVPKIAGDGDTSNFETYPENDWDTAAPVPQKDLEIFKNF
Chain of Protein kinase C theta type (Q04759 whole entry): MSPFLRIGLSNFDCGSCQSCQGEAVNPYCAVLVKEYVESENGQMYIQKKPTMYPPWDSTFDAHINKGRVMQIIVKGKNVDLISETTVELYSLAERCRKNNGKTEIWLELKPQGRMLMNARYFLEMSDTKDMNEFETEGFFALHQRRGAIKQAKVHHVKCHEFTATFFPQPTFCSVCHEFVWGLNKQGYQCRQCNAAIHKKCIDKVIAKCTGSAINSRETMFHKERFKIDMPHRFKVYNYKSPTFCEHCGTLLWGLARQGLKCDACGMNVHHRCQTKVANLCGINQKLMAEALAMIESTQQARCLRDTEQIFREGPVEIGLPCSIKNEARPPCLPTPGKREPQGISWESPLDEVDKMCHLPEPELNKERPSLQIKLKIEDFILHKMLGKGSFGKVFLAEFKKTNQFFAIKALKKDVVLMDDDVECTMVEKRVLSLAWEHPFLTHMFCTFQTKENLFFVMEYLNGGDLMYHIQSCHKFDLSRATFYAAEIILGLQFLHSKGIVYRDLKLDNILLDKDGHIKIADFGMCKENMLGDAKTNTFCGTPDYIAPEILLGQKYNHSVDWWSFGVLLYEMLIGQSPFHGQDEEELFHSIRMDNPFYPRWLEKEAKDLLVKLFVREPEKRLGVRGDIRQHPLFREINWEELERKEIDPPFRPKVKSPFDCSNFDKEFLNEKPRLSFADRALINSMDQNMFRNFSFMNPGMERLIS
Chain of 5'-AMP-activated protein kinase catalytic subunit alpha-1 (Q13131 whole entry): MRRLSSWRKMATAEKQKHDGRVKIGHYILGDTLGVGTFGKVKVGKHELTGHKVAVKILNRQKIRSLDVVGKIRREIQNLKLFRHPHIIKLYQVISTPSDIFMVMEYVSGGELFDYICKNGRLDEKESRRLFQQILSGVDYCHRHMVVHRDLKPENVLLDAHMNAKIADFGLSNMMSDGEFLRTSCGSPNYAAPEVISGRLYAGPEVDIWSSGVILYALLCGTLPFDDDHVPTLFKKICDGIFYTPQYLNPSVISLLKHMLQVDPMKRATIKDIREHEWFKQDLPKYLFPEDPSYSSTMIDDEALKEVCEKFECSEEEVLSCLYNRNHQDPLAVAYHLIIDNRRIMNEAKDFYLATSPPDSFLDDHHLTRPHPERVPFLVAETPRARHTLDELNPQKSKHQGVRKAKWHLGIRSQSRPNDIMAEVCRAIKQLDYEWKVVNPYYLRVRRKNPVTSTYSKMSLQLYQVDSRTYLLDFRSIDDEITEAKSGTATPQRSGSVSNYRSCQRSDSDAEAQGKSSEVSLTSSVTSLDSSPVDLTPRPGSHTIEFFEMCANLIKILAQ
Chain of High affinity nerve growth factor receptor (P04629 whole entry): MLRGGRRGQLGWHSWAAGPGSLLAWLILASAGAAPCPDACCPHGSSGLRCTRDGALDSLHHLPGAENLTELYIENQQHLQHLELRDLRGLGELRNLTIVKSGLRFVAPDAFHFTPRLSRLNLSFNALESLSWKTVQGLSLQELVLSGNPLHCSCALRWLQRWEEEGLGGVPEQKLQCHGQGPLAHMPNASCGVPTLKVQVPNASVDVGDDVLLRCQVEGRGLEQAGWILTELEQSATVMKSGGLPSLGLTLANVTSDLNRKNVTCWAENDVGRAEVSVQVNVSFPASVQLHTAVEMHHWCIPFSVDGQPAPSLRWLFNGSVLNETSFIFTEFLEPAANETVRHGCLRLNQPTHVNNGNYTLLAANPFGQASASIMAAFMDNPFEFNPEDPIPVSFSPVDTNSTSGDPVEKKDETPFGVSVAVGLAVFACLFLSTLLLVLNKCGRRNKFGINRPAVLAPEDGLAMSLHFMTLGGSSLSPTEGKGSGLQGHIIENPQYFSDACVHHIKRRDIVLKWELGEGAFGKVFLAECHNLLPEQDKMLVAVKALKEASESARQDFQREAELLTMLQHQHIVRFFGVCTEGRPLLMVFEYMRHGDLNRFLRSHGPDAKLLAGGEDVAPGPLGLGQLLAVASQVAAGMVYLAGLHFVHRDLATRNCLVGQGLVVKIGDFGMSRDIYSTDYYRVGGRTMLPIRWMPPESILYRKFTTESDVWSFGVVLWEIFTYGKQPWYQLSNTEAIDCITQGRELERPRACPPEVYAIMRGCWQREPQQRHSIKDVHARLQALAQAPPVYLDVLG

For orientation: IC50 means the concentration that gives 50% inhibition. In the case of `Cc1ccnc2ccc(-c3nc4ccccc4o3)cc12`, the concentration for half-maximal inhibition (IC50) is 71000 nM (active) in experiment [1] and 3650 nM (active) in experiment [2].
Broadly, the Ki is the equilibrium dissociation constant of an inhibitor or competing ligand from its target. As to `O=C(NCCc1cccs1)N1CC=C(c2c[nH]c3ncccc23)CC1`, the Ki in experiment [3] is > 2510 nM (inactive); in experiment [4], > 2510 nM (inactive); in experiment [5] it was > 3160 nM (inactive); in experiment [6] it was 2000 nM (active); in [7], > 3980 nM (inactive); in experiment [8] it was 398 nM (active). Further, the Ki in experiment [9] is 3980 nM (active); in experiment [10], > 5010 nM (inactive); in experiment [11], 3160 nM (active); in experiment [12] it was > 2510 nM (inactive); in [13], 79.4 nM (active); in experiment [14] it was > 2510 nM (inactive). Besides, the Ki was 2510 nM (active) in experiment [15]; 126 nM (active) in [16]; > 3980 nM (inactive) on Activated CDC42 kinase 1; > 6310 nM (inactive) in experiment [17]; 158 nM (active) in experiment [18]; > 2510 nM (inactive) in experiment [19]. Also, the Ki in experiment [20] was 1000 nM (active); in experiment [21], > 3980 nM (inactive); in experiment [22], 2000 nM (active); in experiment [23] it was 3980 nM (active).
